Source: PubChem BioAssay (NCI)
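Five compound concentrations were applied to cells in 96-well plates for 48 hours; endpoints were derived by simple linear interpolation of the resulting dose-response curve. GI50 marks 50% less growth. TGI denotes the concentration required for complete inhibition of growth.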

Key:
Assay in all cases: growth of human tumour cells (NCI), 48 h; in the data active = GI50 below about 0.43 µM; inactive = the rest
HS 578T breast = test system: HS 578T breast
NCI-H522 lung = test system: NCI-H522 lung
SF-268 CNS = test system: SF-268 CNS
RXF 393 renal = test system: RXF 393 renal
SK-MEL-28 melanoma = test system: SK-MEL-28 melanoma
NCI-H460 lung = test system: NCI-H460 lung
HCT-116 colon = test system: HCT-116 colon
K-562 leukemia = test system: K-562 leukemia
IGROV1 ovarian = test system: IGROV1 ovarian
EKVX NSCLC = test system: EKVX NSCLC
CAKI-1 renal = test system: CAKI-1 renal
M14 melanoma = test system: M14 melanoma
SK-MEL-2 melanoma = test system: SK-MEL-2 melanoma
DU-145 prostate = test system: DU-145 prostate
SNB-19 CNS = test system: SNB-19 CNS
MALME-3M melanoma = test system: MALME-3M melanoma
MCF7 breast = test system: MCF7 breast
UO-31 renal = test system: UO-31 renal
SN12C renal = test system: SN12C renal
BT-549 breast = test system: BT-549 breast
LOX IMVI melanoma = test system: LOX IMVI melanoma
ACHN renal = test system: ACHN renal
NCI/ADR-RES ovarian = test system: NCI/ADR-RES ovarian
KM12 colon = test system: KM12 colon
MDA-MB-435 = test system: MDA-MB-435
SR leukemia = test system: SR leukemia
SNB-75 CNS = test system: SNB-75 CNS
A549 NSCLC = test system: A549 NSCLC
COLO 205 colon = test system: COLO 205 colon
NCI-H226 lung = test system: NCI-H226 lung
U251 CNS = test system: U251 CNS
UACC-62 melanoma = test system: UACC-62 melanoma
NCI-H23 lung = test system: NCI-H23 lung
OVCAR-5 ovarian = test system: OVCAR-5 ovarian
HCC-2998 colon = test system: HCC-2998 colon
CCRF-CEM leukemia = test system: CCRF-CEM leukemia
SF-295 CNS = test system: SF-295 CNS
TK-10 renal = test system: TK-10 renal
HOP-62 NSCLC = test system: HOP-62 NSCLC
HOP-92 NSCLC = test system: HOP-92 NSCLC
HL-60(TB) leukemia = test system: HL-60(TB) leukemia
OVCAR-8 ovarian = test system: OVCAR-8 ovarian
HCT-15 colon = test system: HCT-15 colon
HT29 colon = test system: HT29 colon
786-0 renal = test system: 786-0 renal
SW-620 colon = test system: SW-620 colon
MOLT-4 leukemia = test system: MOLT-4 leukemia
SK-MEL-5 melanoma = test system: SK-MEL-5 melanoma
SK-OV-3 ovarian = test system: SK-OV-3 ovarian
PC-3 prostate = test system: PC-3 prostate
RPMI-8226 leukemia = test system: RPMI-8226 leukemia
T-47D breast = test system: T-47D breast
OVCAR-4 ovarian = test system: OVCAR-4 ovarian
OVCAR-3 ovarian = test system: OVCAR-3 ovarian
UACC-257 melanoma = test system: UACC-257 melanoma
SF-539 CNS = test system: SF-539 CNS
MDA-MB-231 breast = test system: MDA-MB-231 breast

CCN(CC)CCCCCCNc1cc(OC)cc2cccnc12
10.5 µM: TGI (KM12 colon)
15.4 µM: TGI (A549 NSCLC)
3.4 µM: TGI (OVCAR-3 ovarian)
36.8 µM: TGI (UACC-257 melanoma)
32.6 µM: TGI (SK-MEL-2 melanoma)
42.3 µM: TGI (HS 578T breast)
inactive: GI50 (HS 578T breast) 12.3 µM | GI50 (NCI-H522 lung) 2.17 µM | GI50 (SF-268 CNS) 1.72 µM | GI50 (RXF 393 renal) 4.26 µM | GI50 (SK-MEL-28 melanoma) 2.09 µM | GI50 (NCI-H460 lung) 2 µM | GI50 (HCT-116 colon) 1.93 µM | GI50 (K-562 leukemia) 1.74 µM | GI50 (IGROV1 ovarian) 2.27 µM | GI50 (EKVX NSCLC) 13.4 µM | GI50 (CAKI-1 renal) 12.4 µM | GI50 (M14 melanoma) 1.93 µM | GI50 (SK-MEL-2 melanoma) 17.6 µM | GI50 (DU-145 prostate) 1.8 µM | GI50 (SNB-19 CNS) 8.17 µM | GI50 (MALME-3M melanoma) 2.03 µM | GI50 (MCF7 breast) 1.74 µM | GI50 (UO-31 renal) 11.5 µM | GI50 (SN12C renal) 2.29 µM | GI50 (BT-549 breast) 17.4 µM | GI50 (LOX IMVI melanoma) 1.74 µM | GI50 (ACHN renal) 1.84 µM | GI50 (NCI/ADR-RES ovarian) 7.16 µM | GI50 (KM12 colon) 3.15 µM | GI50 (MDA-MB-435) 1.84 µM | GI50 (SR leukemia) 1.99 µM | GI50 (SNB-75 CNS) 13.8 µM | GI50 (A549 NSCLC) 4.35 µM | GI50 (COLO 205 colon) 1.94 µM | GI50 (NCI-H226 lung) 21.3 µM | GI50 (U251 CNS) 2.38 µM | GI50 (UACC-62 melanoma) 2.29 µM | GI50 (NCI-H23 lung) 13.3 µM | GI50 (OVCAR-5 ovarian) 6.74 µM | GI50 (HCC-2998 colon) 2.32 µM | GI50 (CCRF-CEM leukemia) 2.39 µM | GI50 (SF-295 CNS) 11.4 µM | GI50 (TK-10 renal) 16.1 µM | GI50 (HOP-62 NSCLC) 2.06 µM | GI50 (HOP-92 NSCLC) 12.5 µM | GI50 (HL-60(TB) leukemia) 1.94 µM | GI50 (OVCAR-8 ovarian) 3.04 µM | GI50 (HCT-15 colon) 1.9 µM | GI50 (HT29 colon) 1.82 µM | GI50 (786-0 renal) 2.11 µM | GI50 (SW-620 colon) 1.79 µM | GI50 (MOLT-4 leukemia) 1.84 µM | GI50 (SK-MEL-5 melanoma) 2.53 µM | GI50 (SK-OV-3 ovarian) 17.7 µM | GI50 (PC-3 prostate) 2.06 µM | GI50 (RPMI-8226 leukemia) 2.38 µM | GI50 (T-47D breast) 17.5 µM | GI50 (OVCAR-4 ovarian) 2.5 µM | GI50 (OVCAR-3 ovarian) 1.74 µM | GI50 (UACC-257 melanoma) 20.2 µM | GI50 (SF-539 CNS) 1.84 µM
3.43 µM: TGI (HT29 colon)
3.58 µM: TGI (K-562 leukemia)
30.3 µM: TGI (NCI-H23 lung)
4.76 µM: TGI (NCI-H522 lung)
5 µM: TGI (SN12C renal) | TGI (HCC-2998 colon)
4.03 µM: TGI (HL-60(TB) leukemia)
3.63 µM: TGI (MDA-MB-435)
3.79 µM: TGI (NCI-H460 lung)
4.1 µM: TGI (SR leukemia) | TGI (PC-3 prostate)
3.85 µM: TGI (COLO 205 colon)
3.74 µM: TGI (M14 melanoma)
29.5 µM: TGI (UO-31 renal)
8.99 µM: TGI (OVCAR-8 ovarian)
3.55 µM: TGI (HCT-116 colon)
33.6 µM: TGI (BT-549 breast)
26.5 µM: TGI (SF-295 CNS)
3.78 µM: TGI (HCT-15 colon)
5.2 µM: TGI (U251 CNS)
3.93 µM: TGI (MALME-3M melanoma)
43.2 µM: TGI (NCI-H226 lung)
30.8 µM: TGI (SNB-19 CNS) | TGI (TK-10 renal)
4.32 µM: TGI (786-0 renal)
9.55 µM: TGI (OVCAR-4 ovarian)
3.65 µM: TGI (DU-145 prostate)
27.3 µM: TGI (NCI/ADR-RES ovarian)
4.97 µM: TGI (CCRF-CEM leukemia)
5.16 µM: TGI (UACC-62 melanoma)
26.3 µM: TGI (EKVX NSCLC)
15.7 µM: TGI (RXF 393 renal)
4.53 µM: TGI (SK-MEL-28 melanoma)
6.34 µM: TGI (SK-MEL-5 melanoma)
3.71 µM: TGI (SW-620 colon)
22.7 µM: TGI (OVCAR-5 ovarian)
38.6 µM: TGI (T-47D breast)
3.83 µM: TGI (SF-268 CNS)
5.45 µM: TGI (RPMI-8226 leukemia)
3.31 µM: TGI (LOX IMVI melanoma)
4.86 µM: TGI (IGROV1 ovarian)
26.6 µM: TGI (CAKI-1 renal)
3.53 µM: TGI (SF-539 CNS)
5.11 µM: TGI (HOP-62 NSCLC)
27.6 µM: TGI (HOP-92 NSCLC)
30.6 µM: TGI (SNB-75 CNS)
3.56 µM: TGI (MCF7 breast) | TGI (ACHN renal)
3.86 µM: TGI (MOLT-4 leukemia)
33 µM: TGI (SK-OV-3 ovarian)

C/C(=C\c1cnc(C)s1)[C@@H]1C[C@@H]2O[C@@H]2CCC[C@H](C)[C@H](O)[C@@H](C)C(=O)C(C)(C)[C@@H](O)CC(=O)O1
0.0304 µM: TGI (COLO 205 colon)
active: GI50 (HS 578T breast) 0.0117 µM | GI50 (RXF 393 renal) < 0.01 µM | GI50 (NCI-H460 lung) < 0.01 µM | GI50 (HCT-116 colon) < 0.01 µM | GI50 (K-562 leukemia) < 0.01 µM | GI50 (IGROV1 ovarian) 0.0103 µM | GI50 (EKVX NSCLC) 0.0127 µM | GI50 (SK-MEL-2 melanoma) < 0.0146 µM | GI50 (DU-145 prostate) < 0.01 µM | GI50 (SNB-19 CNS) < 0.01 µM | GI50 (MCF7 breast) < 0.01 µM | GI50 (UO-31 renal) < 0.0105 µM | GI50 (SN12C renal) < 0.01 µM | GI50 (BT-549 breast) < 0.01 µM | GI50 (LOX IMVI melanoma) < 0.01 µM | GI50 (ACHN renal) < 0.01 µM | GI50 (NCI/ADR-RES ovarian) 0.0228 µM | GI50 (KM12 colon) < 0.01 µM | GI50 (MDA-MB-231 breast) < 0.0148 µM | GI50 (SR leukemia) < 0.01 µM | GI50 (SNB-75 CNS) < 0.01 µM | GI50 (A549 NSCLC) < 0.01 µM | GI50 (COLO 205 colon) < 0.01 µM | GI50 (U251 CNS) < 0.01 µM | GI50 (UACC-62 melanoma) < 0.01 µM | GI50 (NCI-H23 lung) < 0.01 µM | GI50 (OVCAR-5 ovarian) < 0.01 µM | GI50 (HCC-2998 colon) 0.0103 µM | GI50 (CCRF-CEM leukemia) < 0.01 µM | GI50 (SF-295 CNS) 0.0102 µM | GI50 (HOP-62 NSCLC) < 0.0127 µM | GI50 (HOP-92 NSCLC) < 0.0162 µM | GI50 (OVCAR-8 ovarian) < 0.01 µM | GI50 (HCT-15 colon) < 0.01 µM | GI50 (HT29 colon) < 0.01 µM | GI50 (786-0 renal) < 0.01 µM | GI50 (SW-620 colon) < 0.01 µM | GI50 (MOLT-4 leukemia) < 0.01 µM | GI50 (SK-MEL-5 melanoma) < 0.01 µM | GI50 (SK-OV-3 ovarian) < 0.0125 µM | GI50 (PC-3 prostate) < 0.01 µM | GI50 (RPMI-8226 leukemia) < 0.01 µM | GI50 (T-47D breast) 0.0171 µM | GI50 (OVCAR-3 ovarian) < 0.01 µM | GI50 (SF-539 CNS) < 0.01 µM
> 100 µM: TGI (HS 578T breast) | TGI (RXF 393 renal) | TGI (SK-MEL-28 melanoma) | TGI (NCI-H460 lung) | TGI (HCT-116 colon) | TGI (K-562 leukemia) | TGI (IGROV1 ovarian) | TGI (EKVX NSCLC) | TGI (SK-MEL-2 melanoma) | TGI (DU-145 prostate) | TGI (SNB-19 CNS) | TGI (MCF7 breast) | TGI (UO-31 renal) | TGI (SN12C renal) | TGI (BT-549 breast) | TGI (LOX IMVI melanoma) | TGI (ACHN renal) | TGI (NCI/ADR-RES ovarian) | TGI (KM12 colon) | TGI (MDA-MB-231 breast) | TGI (SR leukemia) | TGI (A549 NSCLC) | TGI (NCI-H226 lung) | TGI (U251 CNS) | TGI (UACC-62 melanoma) | TGI (NCI-H23 lung) | TGI (OVCAR-5 ovarian) | TGI (HCC-2998 colon) | TGI (CCRF-CEM leukemia) | TGI (SF-295 CNS) | TGI (TK-10 renal) | TGI (HOP-62 NSCLC) | TGI (HOP-92 NSCLC) | TGI (OVCAR-8 ovarian) | TGI (HCT-15 colon) | TGI (HT29 colon) | TGI (786-0 renal) | TGI (SW-620 colon) | TGI (MOLT-4 leukemia) | TGI (SK-MEL-5 melanoma) | TGI (SK-OV-3 ovarian) | TGI (PC-3 prostate) | TGI (RPMI-8226 leukemia) | TGI (T-47D breast) | TGI (OVCAR-4 ovarian) | TGI (OVCAR-3 ovarian) | TGI (SF-539 CNS)
inactive: GI50 (SK-MEL-28 melanoma) > 100 µM | GI50 (TK-10 renal) 0.936 µM
